We go through two compounds from BindingDB's records for doi:10.1021/jm800889m (University of Wisconsin At Madison, 2008).

Common to all, as to test: Radioligand Binding Assay
The target of assay [1] is T1, Gamma-aminobutyric acid receptor subunit alpha-4 [36-554]/beta-2 [26-512]/gamma-2 [40-467] (Homo sapiens, UniProt P18507+P47870+P48169).
T1 construct: 36-554; 26-512; 40-467
As to conditions: pH 7.4; 22 °C.

In assay [2] the target is T2, Gamma-aminobutyric acid receptor subunit alpha-5 [32-462]/beta-2 [26-512]/gamma-2 [40-467] (Homo sapiens, UniProt P18507+P31644+P47870).
T2 construct: 32-462; 26-512; 40-467
As to conditions: pH 7.4; 22 °C.

Assay [3] deals with T3, Gamma-aminobutyric acid receptor subunit alpha-6 [20-453]/beta-2 [26-512]/gamma-2 [40-467] (Homo sapiens, UniProt P18507+P47870+Q16445).
T3 construct: 20-453; 26-512; 40-467
As to conditions: pH 7.4; 22 °C.

For assay [4], the target named is T4, Gamma-aminobutyric acid receptor subunit alpha-1 [A160C]/beta-2 [26-512]/gamma-2 [40-467] (Homo sapiens, UniProt P14867+P18507+P47870, A160C).
T4 construct: 26-512; 40-467
As to conditions: 25 °C.

Assay [5] addresses T5, Gamma-aminobutyric acid receptor subunit alpha-1 [28-456]/beta-2 [26-512]/gamma-2 [40-467,R171C] (Homo sapiens, UniProt P14867+P18507+P47870, R171C).
T5 construct: 28-456; 26-512; 40-467
As to conditions: 25 °C.

The target of assay [6] is T6, Gamma-aminobutyric acid receptor subunit alpha-1 [28-456]/beta-2 [26-512]/gamma-2 [40-467,R233C] (Homo sapiens, UniProt P14867+P18507+P47870, R233C).
T6 construct: 28-456; 26-512; 40-467
As to conditions: 25 °C.

Assay [7] deals with T7, Gamma-aminobutyric acid receptor subunit alpha-1 [28-456]/beta-2 [26-512]/gamma-2 [40-467,T120C] (Homo sapiens, UniProt P14867+P18507+P47870, T120C).
T7 construct: 28-456; 26-512; 40-467
As to conditions: 25 °C.

Assay [8] deals with T8, Gamma-aminobutyric acid receptor subunit alpha-1 [S205C]/beta-2 [26-512]/gamma-2 [40-467] (Homo sapiens, UniProt P14867+P18507+P47870, S205C).
T8 construct: 26-512; 40-467
As to conditions: 25 °C.

The target of assay [9] is T9, Gamma-aminobutyric acid receptor subunit alpha-1 [28-456]/beta-2 [26-512]/gamma-2 [40-467,L179C] (Homo sapiens, UniProt P14867+P18507+P47870, L179C).
T9 construct: 28-456; 26-512; 40-467
As to conditions: 25 °C.

In assay [10] the target is T10, Gamma-aminobutyric acid receptor subunit alpha-2 [29-451]/beta-2 [26-512]/gamma-2 [40-467] (Homo sapiens, UniProt P18507+P47869+P47870).
T10 construct: 29-451; 26-512; 40-467
As to conditions: pH 7.4; 22 °C.

Assay [11] addresses T11, Gamma-aminobutyric acid receptor subunit alpha-1 [28-456]/beta-2 [26-512]/gamma-2 [40-467,A118C] (Homo sapiens, UniProt P14867+P18507+P47870, A118C).
T11 construct: 28-456; 26-512; 40-467
As to conditions: 25 °C.

The target in assay [12] is T12, Gamma-aminobutyric acid receptor subunit alpha-1 [28-456]/beta-2 [26-512]/gamma-2 [40-467,M169C] (Homo sapiens, UniProt P14867+P18507+P47870, M169C).
T12 construct: 28-456; 26-512; 40-467
As to conditions: 25 °C.

Assay [13] has as its target T13, Gamma-aminobutyric acid receptor subunit alpha-1 [28-456]/beta-2 [26-512]/gamma-2 [40-200],P14867[176-456] (Homo sapiens, UniProt P14867+P18507+P47870).
T13 construct: 28-456; 26-512; 40-200; 176-456
As to conditions: 25 °C.

Assay [14] deals with T14, Gamma-aminobutyric acid receptor subunit alpha-1 [T162C]/beta-2 [26-512]/gamma-2 [40-467] (Homo sapiens, UniProt P14867+P18507+P47870, T162C).
T14 construct: 26-512; 40-467
As to conditions: 25 °C.

The target of assay [15] is T15, Gamma-aminobutyric acid receptor subunit alpha-1 [28-456]/beta-2 [26-512]/gamma-2 [40-467,R224C] (Homo sapiens, UniProt P14867+P18507+P47870, R224C).
T15 construct: 28-456; 26-512; 40-467
As to conditions: 25 °C.

Assay [16] addresses T16, Gamma-aminobutyric acid receptor subunit alpha-1 [V211C]/beta-2 [26-512]/gamma-2 [40-467] (Homo sapiens, UniProt P14867+P18507+P47870, V211C).
T16 construct: 26-512; 40-467
As to conditions: 25 °C.

Assay [17] addresses T17, Gamma-aminobutyric acid receptor subunit alpha-1 [28-456]/beta-2 [26-512]/gamma-2 [40-467,R183C] (Homo sapiens, UniProt P14867+P18507+P47870, R183C).
T17 construct: 28-456; 26-512; 40-467
As to conditions: 25 °C.

Assay [18] concerns the target T18, Gamma-aminobutyric acid receptor subunit alpha-1 [F99C]/beta-2 [26-512]/gamma-2 [40-467] (Homo sapiens, UniProt P14867+P18507+P47870, F99C).
T18 construct: 26-512; 40-467
As to conditions: pH 7.4; 22 °C.

The target in assay [19] is T19, Gamma-aminobutyric acid receptor subunit alpha-3 [29-492]/beta-2 [26-512]/gamma-2 [40-467] (Homo sapiens, UniProt P18507+P34903+P47870).
T19 construct: 29-492; 26-512; 40-467
As to conditions: pH 7.4; 22 °C.

For assay [20], the target named is T20, Gamma-aminobutyric acid receptor subunit alpha-1 [G157C]/beta-2 [26-512]/gamma-2 [40-467] (Homo sapiens, UniProt P14867+P18507+P47870, G157C).
T20 construct: 26-512; 40-467
As to conditions: 25 °C.

The target of assay [21] is T21, Gamma-aminobutyric acid receptor subunit alpha-1 [28-456]/beta-2 [26-512]/gamma-2 [40-467,T165C] (Homo sapiens, UniProt P14867+P18507+P47870, T165C).
T21 construct: 28-456; 26-512; 40-467
As to conditions: 25 °C.

The target of assay [22] is T22, Gamma-aminobutyric acid receptor subunit alpha-1 [V202C]/beta-2 [26-512]/gamma-2 [40-467] (Homo sapiens, UniProt P14867+P18507+P47870, V202C).
T22 construct: 26-512; 40-467
As to conditions: 25 °C.

For assay [23], the target named is T23, Gamma-aminobutyric acid receptor subunit alpha-1 [T206C]/beta-2 [26-512]/gamma-2 [40-467] (Homo sapiens, UniProt P14867+P18507+P47870, T206C).
T23 construct: 26-512; 40-467
As to conditions: 25 °C.

For assay [24], the target named is T24, Gamma-aminobutyric acid receptor subunit alpha-1 [G200C]/beta-2 [26-512]/gamma-2 [40-467] (Homo sapiens, UniProt P14867+P18507+P47870, G200C).
T24 construct: 26-512; 40-467
As to conditions: 25 °C.

The target in assay [25] is T25, Gamma-aminobutyric acid receptor subunit alpha-1 [28-456]/beta-2 [26-512]/gamma-2 [40-467,D95C] (Homo sapiens, UniProt P14867+P18507+P47870, D95C).
T25 construct: 28-456; 26-512; 40-467
As to conditions: 25 °C.

Assay [26] has as its target T26, Gamma-aminobutyric acid receptor subunit alpha-1 [28-456]/beta-2 [26-512]/gamma-2 [40-467,T181C] (Homo sapiens, UniProt P14867+P18507+P47870, T181C).
T26 construct: 28-456; 26-512; 40-467
As to conditions: 25 °C.

Assay [27] addresses T27, Gamma-aminobutyric acid receptor subunit alpha-1 [S204C]/beta-2 [26-512]/gamma-2 [40-467] (Homo sapiens, UniProt P14867+P18507+P47870, S204C).
T27 construct: 26-512; 40-467
As to conditions: 25 °C.

Assay [28] deals with T28, Gamma-aminobutyric acid receptor subunit alpha-1 [28-456]/beta-2 [26-512]/gamma-2 [40-467] (Homo sapiens, UniProt P14867+P18507+P47870).
T28 construct: 28-456; 26-512; 40-467
As to conditions: pH 7.4; 22 °C.

As usually defined, the Ki is the dissociation constant of the complex between target and ligand, obtained from inhibition or displacement. The low end stands for tighter binding, the high end for weaker binding. For `Cc1ccc(-c2nc3ccc(C)cn3c2CC(=O)N(C)C)cc1` [Ambien], the Ki in [1] and in [2] was above 15000 nM each time.
For `CN1CCN(C(=O)Oc2c3[nH]ccnc-3c(=O)n2-c2ccc(Cl)cn2)CC1` [ESZ], the Ki in assay [3] was above 15000 nM; in assay [4] it was 60.4 nM; in assay [5], 110 nM; in assay [6] it was 67 nM; in assay [7], 75.2 nM; in assay [8], 34.9 nM. Moreover, the Ki in assay [9] turned out to be 46.3 nM; in [10] it was 114 nM; in [11] it was 393 nM; in assay [12], 102 nM; in assay [13], 22.4 nM; in assay [14], 33.8 nM. Besides, the Ki in assay [15] is 70.9 nM; in assay [16] it was 62.4 nM; in assay [17] it was 174 nM; in [1], above 15000 nM; in assay [18] it was 407 nM; in [19] it was 162 nM. Also, the Ki in assay [20] worked out at 2100 nM; in assay [21], 71.9 nM; in assay [22] it was 249 nM; in assay [23], 0.83 nM; in assay [2], 102 nM; in [24] it was 119 nM. Besides, the Ki in assay [25] is 82.4 nM; in assay [26], 503 nM; in assay [27] it was 57.9 nM; in assay [28], 50.1 nM.
